Results as given in patent US7585644B2, “Mycopolasma detecting methods and materials” (priority 2003, dated 2009).

What was measured:
[1] = test system: luciferase enzyme/reaction; test: Effect of detergents and substrate on light output of the luciferase reaction; assay type: biochemical
Source text: (§1) The aim of the following experiments was to determine the concentrations of Triton-X100 in the Hepes-EDTA buffer on the ratios seen with mycoplasma contaminated K562 cell cultures. Two organisms were investigated, M. hyorhinis and M. orale.
(§2) However, it is still possible to detect positive activity with concentrations as high as 20% (v/v).
(§3) The concentrations of these detergents can be taken up to 10% without loss of sensitivity of mycoplasmal detection.

luciferase = luciferase (Photinus pyralis, UniProt P08659); details: cited from earlier work
[2] = test system: M. pneumoniae, M. hominis, M. fermentans, M. genitalium and U. urealyticum; details: variable responses between species; cited from earlier work
[3] = test system: M. hyorhinis and M. orale; test: Effect of detergent concentration on detection of mycoplasma enzyme activities; assay type: cell-based
Source text: as §1, §2
However, mycoplasma can be lysed with concentrations of Triton X-100 at around 1-2%.
as §3

[4] = test system: E. coli strain JM109 cells; test: Effect of Triton-X100 on carbamate or acetate kinase activity from bacterial cells; assay type: cell-based

Chain of luciferase (P08659 whole entry): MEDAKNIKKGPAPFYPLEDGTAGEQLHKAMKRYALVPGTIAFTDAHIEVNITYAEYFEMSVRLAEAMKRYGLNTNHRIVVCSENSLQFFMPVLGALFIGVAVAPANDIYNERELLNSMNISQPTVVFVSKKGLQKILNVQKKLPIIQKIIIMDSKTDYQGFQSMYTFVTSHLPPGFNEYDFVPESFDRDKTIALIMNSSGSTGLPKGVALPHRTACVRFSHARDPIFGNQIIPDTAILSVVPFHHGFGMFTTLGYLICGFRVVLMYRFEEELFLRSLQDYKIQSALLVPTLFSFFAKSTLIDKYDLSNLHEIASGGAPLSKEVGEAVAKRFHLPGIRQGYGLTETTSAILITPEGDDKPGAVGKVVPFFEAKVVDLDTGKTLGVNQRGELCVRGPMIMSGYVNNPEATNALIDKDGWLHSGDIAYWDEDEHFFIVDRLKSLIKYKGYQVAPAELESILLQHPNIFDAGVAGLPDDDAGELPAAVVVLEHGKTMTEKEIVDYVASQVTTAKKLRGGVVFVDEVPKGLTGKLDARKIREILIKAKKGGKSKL

CC(=O)OP(=O)(O)O [Acetyl phosphate]
concentration above which light output is reduced ([1]; assay still performs): above 10

Nc1ncnc2c1ncn2[C@H]1C[C@H](O)[C@@H](COP(=O)(O)OP(=O)(O)OP(=O)(O)O)O1 [deoxy-ATP]
light produced relative to the light generated by ATP (luciferase): less than 2%

CO/N=C1\CN(c2nc3c(cc2F)c(=O)c(C(=O)O)cn3C2CC2)CC1CN (centres unmarked) [gemifloxacin]
performance against mycoplasma compared with other antibiotics [2]: performed better than tetracycline

Triton-X100
detergent concentration above which light output drops ([1]; K562 cells infected with M. hyorhinis and M. orale, Hepes-EDTA buffer): 4-5% | concentration that lyses mycoplasma [3]: 1-2% | highest detergent concentration at which positive activity is still detected ([3]; K562 cells infected with M. hyorhinis and M. orale): 20 % (v/v) | carbamate or acetate kinase activity ([4]; Triton-X100 concentrations of the FIG. 10 experiments): did not result in any detectable carbamate or acetate kinase activity | ratio B/A ([4]; Triton-X100 increased to 1-2%): did not result in positive ratios above 1
